Measured values: the METLIN SMRT retention time set (Domingo-Almenara et al. 2019)

Assay: gradient 5% acetonitrile 3 min, to 50% in 2 min, to 85% in 15 min, held 3 min, 100 µL/min
Conditions: column: Zorbax Extend-C18 2.1 x 50 mm; eluents: water / acetonitrile, 0.1% formic acid
Summary of the method: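 The system's dead and dwell volumes were 40 μL and 900 μL, with a Zorbax Extend-C18 column (2.1 × 50 mm, 1.8 μm) run at 100 μL/min in water and acetonitrile containing 0.1% formic acid each. Pure standards were analyzed in mixtures of ~100 molecules by HPLC–quadrupole time-of-flight mass spectrometry in positive and negative ionization mode. Retention time was assigned from computationally picked, manually inspected adduct peaks.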

RP-LC retention time | SMILES
669 s | COc1ccc(C2Cn3cnc(C(=O)N4CCC(C(=O)NC(C)C)CC4)c3CO2)cc1 (stereo not given)
951 s | Cn1nc(C(=O)Nc2ccccc2F)cc1C(F)(F)F
700 s | O=C(O)c1ccc(-c2c[nH]c3ncc(-c4ccccc4)cc23)cc1C1CCCC1
614 s | CCC(=O)N1CCc2c(C(=O)NCCN3CCc4ccccc4C3)cccc21
884 s | COCc1cc(=O)n(CC(=O)Nc2cccc(Cl)c2)c(N2CCOCC2)n1
797 s | COc1ccccc1CNC(=O)Cn1c(=O)c2cc(-c3ccco3)nn2c2ncccc21
597 s | CCN1CCN(CCNC(=O)C2CCN(C(=O)c3ccc(-n4ccc5ccccc54)s3)CC2)CC1
702 s | COc1ccc(Cn2c(CO)cnc2SCC(=O)N2CCCc3ccccc32)cc1
947 s | O=C(NCc1ccco1)c1ccc2cnn(Cc3cccc(Cl)c3)c2c1
1260 s | COc1nc2ccccc2nc1N1CCCC(C(=O)Nc2ccc(Br)c(C)c2C)C1 (stereo not given)
590 s | Cn1c(C(=O)NC2CC2)cc2c1CCN(Cc1ccc(F)cc1)C2
882 s | CCOC(=O)c1cnc(NC(=O)c2ccc(S(=O)(=O)N3CCCCC3)cc2)s1
934 s | Cc1ccccc1Cn1c(CN2CCC(C(=O)NC3CCCCCCC3)CC2)cc2ccccc21
680 s | COC(=O)c1ccccc1NC(=O)N1CCN(c2nc3ccccc3n2C)CC1
908 s | COc1ccc(-c2nnc(-c3ccccc3)o2)cc1S(=O)(=O)N1CCCC1
880 s | CNC(=O)N1CCCC(c2cccc(C(=O)NC(C)c3ccc(C)cc3C)c2)C1 (stereo not given)
1290 s | CCOc1ccccc1NC(=O)Cn1nc(N2CCC(C)CC2)c2ccccc2c1=O
854 s | COc1ccc(C(=O)NC2(c3nc(C)no3)CCCCC2)cc1F
877 s | COc1cccc(C(=O)Nc2nc(-c3ccc4c(c3)NC(=O)CO4)c(C)s2)c1
638 s | CNC(=O)C1CCN(C(=O)Nc2ccc(NC(=O)Nc3ccc(OC)cc3)cc2)CC1
752 s | CCC(C)C(=O)NC1CCN(C2=NS(=O)(=O)C(c3ccccc3)=C2C)CC1 (stereo not given)
620 s | CO[C@H]1CN(C2CCN(S(=O)(=O)Cc3ccccc3F)CC2)[C@H]1c1ccncc1
664 s | COc1ccc(CNC(=O)C2CC(=O)N(c3ccc4c(c3)CCN4C(C)=O)C2)cc1 (stereo not given)
920 s | COC(=O)C1=CN(c2ccc(C)c(F)c2)c2cc(F)ccc2S1(=O)=O
870 s | COc1ccc(C2CC(=O)N(c3ccc(F)cc3F)C(=O)C2)cc1OC
731 s | COCCNC(=O)c1nc2ccccn2c1-c1ccc(Cl)cc1
651 s | COc1ccc(NC(=O)N2CCCC(Cn3cnc4cccnc43)C2)c(OC)c1 (stereo not given)
759 s | COc1cc(Cl)ccc1C(=O)N1C[C@@H]2C[C@H](NC(=O)c3ccccc3)[C@H]1C2
1020 s | Cc1cc(C(=O)Nc2cccc(Cl)c2)nc2cc(-c3ccco3)nn12
725 s | COc1ccc2c(c1)CC(C(=O)N1CCN(C(=O)c3ccco3)CC1)CO2 (stereo not given)

Second part, the molecule before the results:

SMILES | RP-LC retention time
CCCCn1cc(S(=O)(=O)Nc2ccc(CC)cc2)c2cccnc21 | 1040 s
CCOC(=O)N1CCN(C(=O)CSCC(=O)Nc2nc(-c3ccc(OC)cc3)cs2)CC1 | 841 s
CC(C)(C)c1ccc(C(=O)NCc2ccco2)cc1 | 873 s
CCc1noc(-c2cc(=O)n(CC(=O)NCc3ccccc3F)c3ccccc23)n1 | 890 s
CCCn1cc2c3c(cccc31)CN(C(=O)COc1ccc(F)cc1)CC2 | 1030 s
CCOC(=O)Cc1ccc(NC(=O)N2CCSc3nc(C)cc(C)c32)cc1 | 735 s
O=C(CCn1nnc2ccccc2c1=O)NCCn1ncccc1=O | 584 s
COc1c(C(=O)NCc2cc(F)cc(F)c2)sc2ccc(F)cc12 | 1070 s
Cc1ccc(N2CCN(C(=O)c3ccc(Cn4cncn4)cc3)CC2)c(C)c1 | 867 s
Cc1cccc2nc(-c3ccc(N4CCOCC4)cc3)c(Nc3ccc4c(c3)OCO4)n12 | 676 s
Cc1ccc(CNc2nnc(-c3nnc(C)o3)c3ccccc23)cc1 | 830 s
CCCCS(=O)(=O)N1CCC2(CC1)C(=O)N(C)C(=O)N2C | 671 s
CN(CC1CCOCC1)C(=O)Nc1cccc(Br)c1 | 784 s
CCOC(=O)c1cc(C2CC2)nc2c1c(=O)n(Cc1ccccc1F)c(=O)n2C | 1140 s
O=C(NCCN1CCOCC1)c1ccc(-c2ccc(N3CCSCC3)nc2)cc1 | 568 s
COc1ccc(NC(=O)N2CCN(CCn3c(C(C)C)nc4cccnc43)CC2)c(OC)c1 | 592 s
CCN1CCN(c2nc3cc(C(=O)OC)ccc3c(=O)n2-c2ccc3c(c2)OCO3)CC1 | 648 s
CCNc1cc(N2CCCC(CCC(=O)Nc3ccc(OCC)cc3)C2)ncn1 (stereo not given) | 699 s
O=C(NCCCn1ncccc1=O)c1ccc(S(=O)(=O)N2CCCC2)cc1 | 621 s
Cn1ncc2c(N3CCOCC3)nc(C(=O)NCCc3cccs3)nc21 | 710 s

SMILES | RP-LC retention time
O=[N+]([O-])c1cccc2cn[nH]c12 | 767 s
O=C(c1ccc(Br)cc1)N1CCc2cc(-c3ccno3)ccc21 | 1030 s
Cc1sc(-c2cc(C(F)(F)F)on2)cc1S(=O)(=O)Nc1cccc(Cl)c1C | 1240 s
O=C(CSc1nnc2ccccn12)NCc1ccco1 | 576 s
Cc1nc2c(NC(=O)c3cccs3)cccn2n1 | 690 s
O=C(NCc1ccc(Br)cc1)C1CCN(C(=O)c2cc(-c3ccncc3)n[nH]2)CC1 | 618 s
CCn1c(C(=O)NCCCN2CCCCC2)c(N2CCCC2=O)c2cc(F)ccc21 | 647 s
Brc1ccc(CSc2nnc(-c3ccccc3)o2)cc1 | 1180 s
O=C(CN1CCCc2nc(C3CC3)ncc2C1=O)NCc1cccs1 | 682 s
Cc1nc(-c2cc(S(=O)(=O)NCc3ccccc3Cl)c(C)s2)cs1 | 1080 s
CCc1nnc(NS(=O)(=O)c2ccc(NC(=O)c3ccc(Cl)s3)cc2)s1 | 821 s
CCCCCn1c(=O)c2ccccc2n(Cc2nc(-c3ccc(OCC)c(OC)c3)no2)c1=O | 1230 s
O=S(=O)(NC1CCCCC1)c1cc(-c2noc(C3CCCC3)n2)cs1 | 1230 s
Cc1ccc(NC(=O)N2CCN(CCn3c(C(C)C)nc4cccnc43)CC2)c(C)c1 | 621 s
COc1cc(NC(=O)N2CCN(Cc3nc4ccc(C)cc4o3)CC2)cc(OC)c1OC | 669 s
CCOc1cc2c(cc1OCC)C1C(C(=O)N3CCN(C)CC3)c3ccccc3C(=O)N1CC2 (stereo not given) | 567 s
COc1ccc(-c2n[nH]c3c2C(c2cc(OC)ccc2OC)NC3=O)cc1 (stereo not given) | 729 s
Cc1cc(C(=O)Nc2nc(-c3ccc(Cl)cc3)c(C)s2)no1 | 1110 s
O=C(Nc1ccc2c(c1)OCCO2)N1CCCC(c2nn[nH]n2)C1 (stereo not given) | 634 s
CNC(=O)c1ccc(-c2nc3cc(NS(=O)(=O)c4cc(C)c(C)cc4C)ccc3n2C)cc1 | 713 s

SMILES | RP-LC retention time
Fc1ccccc1-c1noc(NC2CCCC2)n1 | 929 s
Nc1nc(CN2CCN(c3ccccn3)CC2)nc(Nc2ccc(Oc3ccccc3)cc2)n1 | 669 s
CCOC(=O)c1cccc(NC2=NS(=O)(=O)C(c3ccc(F)cc3)=C2C)c1 | 927 s
Cc1oc(-c2ccc(NC(=O)CC3CCCC3)cc2)nc1Cn1cccn1 | 896 s
Cc1ccc2nc(-c3ccccc3O)c(Nc3ccccc3C)n2c1 | 751 s
CCCNC(=O)C1(CCO)CCN(c2ncccn2)C1 (stereo not given) | 560 s
Brc1cccc(-c2nc3ccccn3c2Nc2ccc3c(c2)OCO3)c1 | 726 s
CCNc1ncnc2sc3c(c12)CCN(C(=O)CCOC)C3 | 610 s
O=C(NCc1ccc(F)cc1F)C1CCc2nc(N3CCOCC3)ncc2C1 (stereo not given) | 682 s
COc1ccc2c(c1)c(CN1C[C@@H](CO)[C@H](c3nc(C)no3)C1)cn2C | 555 s
Cc1ccccc1-c1noc2ncnc(N3CCN(c4ccccn4)CC3)c12 | 673 s
O=c1ccc(S(=O)(=O)N2CCOCC2)cn1Cc1ccccc1F | 723 s
CN1CCN(c2c3c(nc4nc(-c5ccccc5)nn24)CCCC3)CC1 | 582 s
CC1(C)CC(=O)C2=C(C1)N(CC1CCCO1)C(=O)C2(NC(=O)c1ccc(Cl)cc1)C(F)(F)F (stereo not given) | 975 s
Cc1csc(-c2csc(S(=O)(=O)NCc3cccs3)c2)n1 | 907 s
Cc1ccc(CCC(=O)Nc2nc(-c3ccc4c(c3)NC(=O)C(C)O4)c(C)s2)cc1 (stereo not given) | 1010 s
CNC(=O)Cn1nc(C2CCN(C(=O)c3ccc(F)cc3)CC2)c2c1CCOC2 | 614 s
O=C(Cc1csc2nc(-c3cccc(Br)c3)cn12)Nc1ccc(F)cc1 | 959 s
Cn1cc(C2=CCN(C(=O)c3cc(F)cc(F)c3)CC2)c2cccnc21 | 846 s
CCC(CC)NC(=O)C1Cn2cccc2C(=O)N1CC(C)C (stereo not given) | 756 s
